Laboratory results taken from ChEMBL document CHEMBL5291721, “A preclinical secondary pharmacology resource illuminates target-adverse drug reaction associations of marketed drugs” (Nat Commun, 2023).

Target: T1, Type-2 angiotensin II receptor (Homo sapiens, UniProt P50052)
T1 sequence (P50052 whole entry): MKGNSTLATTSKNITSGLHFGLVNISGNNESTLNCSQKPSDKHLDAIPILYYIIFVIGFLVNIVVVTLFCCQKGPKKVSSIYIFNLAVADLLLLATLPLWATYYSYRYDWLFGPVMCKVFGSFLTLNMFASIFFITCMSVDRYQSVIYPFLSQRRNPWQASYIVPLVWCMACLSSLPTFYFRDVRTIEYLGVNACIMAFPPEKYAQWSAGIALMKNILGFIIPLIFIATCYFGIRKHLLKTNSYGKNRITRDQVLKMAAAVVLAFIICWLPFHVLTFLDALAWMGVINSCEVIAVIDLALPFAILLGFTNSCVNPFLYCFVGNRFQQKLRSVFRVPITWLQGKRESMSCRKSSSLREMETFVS
Format: functional
Also: assay procedure not described here.

AC50: > 100 µM
SMILES: C1CCC(C(CC2CCCCN2)C2CCCCC2)CC1 (stereo unspecified) [PERHEXILINE]
